Consider 29 compounds from patent publication US20250179061A1 (SIRONAX LTD., priority 2022, published 2025).

Like-named read-outs stand apart in the source and are kept apart here.

This test deals with HT-29 cells. The test can be described thus: HT-29 necroptosis cell viability assay (TNF-α/SMAC mimetic/zVAD-FMK, CellTiter-Glo). The format is cell-based. Particulars: Homo sapiens. The procedure, abridged:
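Necroptosis was triggered by TNF-α (10 ng/ml), SMAC mimetic (6 μM) and zVAD-FMK (10 μM) in serum-free medium during 20 h compound exposure (10 concentrations, threefold steps) of HT-29 cells. IC50 from duplicate dose-responses uses CellTiter-Glo ATP luminescence as viability read-out.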

Where [1] appears, read: HT-29, HT-29 necroptosis cell viability assay, class symbols for IC50, read-out: Activity.
Where [2] appears, read: HT-29, HT-29 cells, necroptosis induced by TNF-α/SMAC mimetic/zVAD-FMK, CellTiter-Glo, read-out: Activity (IC50 class).
Setting [3] is: HT-29, HT-29 necroptosis cell viability, IC50 class symbols, read-out: Activity.
Where [4] appears, read: HT-29 cells stimulated with TNF-α (10 ng/ml), SMAC mimetic (6 μM) and zVAD-FMK (10 μM), 20 hours, CellTiter-Glo ATP luminescence, geometric mean IC50 from 10 points, read-out: Activity.

Consider `Cc1nc(C(N)=O)sc1Oc1ccc(-n2ncn(Cc3ncccc3Cl)c2=O)cc1F` [Example 590, 5-(4-(4-((3-chloropyridin-2-yl)methyl)-5-oxo-4,5-dihydro-1H-1,2,4-triazol-1-yl)-2-fluorophenoxy)-4-methylthiazole-2-carboxamide], for which the IC50 under setting [1] is less than 100 nM.

Turning to `Cc1nc(NC(=O)OC(C)(C)C)sc1S(=O)(=O)c1ccc(-n2ncn(Cc3ccccc3)c2=O)cc1` [Example 629, tert-butyl (5-((4-(4-benzyl-5-oxo-4,5-dihydro-1H-1,2,4-triazol-1-yl)phenyl)sulfonyl)-4-methylthiazol-2-yl)carbamate], under setting [1], the IC50 lay in the range of 100 to 1000 nM. For `Nc1nc(COc2ccc(-n3ncn(Cc4c(F)cccc4F)c3=O)cc2F)cs1` [Example 659, 2-(4-((2-aminothiazol-4-yl)methoxy)-3-fluorophenyl)-4-(2,6-difluorobenzyl)-2,4-dihydro-3H-1,2,4-triazol-3-one], the IC50 under setting [2] fell in the range of 100 to 1000 nM. For the compound `N#CC12CC(Nc3nccc(Oc4ccc(-n5ncn(Cc6c(F)cccc6F)c5=O)cc4)c3F)(C1)C2` [Example 361, 3-((4-(4-(4-(2,6-difluorobenzyl)-5-oxo-4,5-dihydro-1H-1,2,4-triazol-1-yl)phenoxy)-3-fluoropyridin-2-yl)amino)bicyclo[1.1.1]pentane-1-carbonitrile], the IC50 under setting [3] is 100 to 1000 nM.

Turning to `Cc1nc(C(=O)N2C[C@H](O)[C@@H]2C)sc1Oc1ccc(-n2ncn(Cc3c(F)cccc3F)c2=O)cc1F` [Example 588, 4-(2,6-difluorobenzyl)-2-(3-fluoro-4-((2-((2S,3S)-3-hydroxy-2-methylazetidine-1-carbonyl)-4-methylthiazol-yl)oxy)phenyl)-2,4-dihydro-3H-1,2,4-triazol-3-one], the IC50 under setting [1] was less than 100 nM. In the case of `CCOC1(C)CN(c2cc(Oc3ccc(-n4ncn(Cc5c(F)cccc5Cl)c4=O)cc3)ccn2)C1` [Example 489, 4-(2-chloro-6-fluorobenzyl)-2-(4-((2-(3-ethoxy-3-methylazetidin-1-yl)pyridin-4-yl)oxy)phenyl)-2,4-dihydro-3H-1,2,4-triazol-3-one], the IC50 under setting [1] is 100 to 1000 nM. As for `Cc1nc(C2(O)CC2)sc1Oc1ccc(-n2ncn(Cc3c(F)cccc3F)c2=O)cc1` [Example 580, 4-(2,6-difluorobenzyl)-2-(4-((2-(1-hydroxycyclopropyl)-4-methylthiazol-5-yl)oxy)phenyl)-2,4-dihydro-3H-1,2,4-triazol-3-one], the IC50 under setting [1] was less than 100 nM.

As to `COC(=O)c1nc(C)c(Oc2ccc(-n3ncn(Cc4cc(Cl)ccn4)c3=O)cc2F)s1` [Example 575, methyl 5-(4-(4-((4-chloropyridin-2-yl)methyl)-5-oxo-4,5-dihydro-1H-1,2,4-triazol-1-yl)-2-fluorophenoxy)-4-methylthiazole-2-carboxylate], under setting [1], the IC50 lay in the range of 1000 to 10000 nM.

Turning to `Cc1cnc(N2CC(C)(C#N)C2)cc1Oc1ccc(-n2ncn(Cc3c(F)cccc3F)c2=O)cc1F` [Example 294, 1-(4-(4-(4-(2,6-difluorobenzyl)-5-oxo-4,5-dihydro-1H-1,2,4-triazol-1-yl)-2-fluorophenoxy)-5-methylpyridin-2-yl)-3-methylazetidine-3-carbonitrile], the IC50 under setting [3] was less than 100 nM. For `Cc1c(CC(N)=O)nn(C)c1Oc1ccc(-n2ncn(Cc3c(F)cccc3F)c2=O)cc1F` [Example 143, 2-(5-(4-(4-(2,6-difluorobenzyl)-5-oxo-4,5-dihydro-1H-1,2,4-triazol-1-yl)-2-fluorophenoxy)-1,4-dimethyl-1H-pyrazol-3-yl)acetamide], the IC50 under setting [1] is less than 100 nM.

As to `CC1CCN(c2cc(Oc3ccc(-n4ncn(Cc5c(F)cccc5F)c4=O)cc3)ccn2)C1` (centres unmarked) [Example 337, 4-(2,6-difluorobenzyl)-2-(4-((2-(3-methylpyrrolidin-1-yl)pyridin-4-yl)oxy)phenyl)-2,4-dihydro-3H-1,2,4-triazol-3-one], the IC50 under setting [3] is less than 100 nM. Turning to `Cc1nc(N2CC(OC(C)(C)C)C2)sc1Oc1ccc(-n2ncn(Cc3c(F)cccc3F)c2=O)cc1` [Example 456, 2-(4-((2-(3-(tert-butoxy)azetidin-1-yl)-4-methylthiazol-5-yl)oxy)phenyl)-4-(2,6-difluorobenzyl)-2,4-dihydro-3H-1,2,4-triazol-3-one], the IC50 under setting [3] was less than 100 nM. Take `COC1(C#N)CN(c2ccnc(Cl)c2Oc2ccc(-n3ncn(Cc4c(F)cccc4F)c3=O)cc2)C1` [Example 359, 1-(2-chloro-3-(4-(4-(2,6-difluorobenzyl)-5-oxo-4,5-dihydro-1H-1,2,4-triazol-1-yl)phenoxy)pyridin-4-yl)-3-methoxyazetidine-3-carbonitrile]: the IC50 under setting [3] is 100 to 1000 nM.

As for `Cc1nc(CO)cn1Cc1ccc(-n2nc3n(c2=O)C(c2ccccc2)CC3)cc1F` (centres unmarked) [Example 220, 2-(3-fluoro-4-((4-(hydroxymethyl)-2-methyl-1H-imidazol-1-yl)methyl)phenyl)-5-phenyl-2,5,6,7-tetrahydro-3H-pyrrolo[2,1-c][1,2,4]triazol-3-one], the IC50 under setting [1] lay in the range of 100 to 1000 nM. As for `Cc1ncn(Cc2ccc(-n3ncn(Cc4c(F)cccc4F)c3=O)cc2)c1C#N` [Example 657, 3-[[4-[4-[(2,6-difluorophenyl)methyl]-5-oxo-1,2,4-triazol-1-yl]phenyl]methyl]-5-methyl-imidazole-4-carbonitrile], the IC50 under setting [2] was less than 100 nM. In the case of `Cc1nc(C#N)sc1Oc1ccc(-n2ncn(Cc3c(F)cccc3F)c2=O)cc1` [Example 87, 5-(4-(4-(2,6-difluorobenzyl)-5-oxo-4,5-dihydro-1H-1,2,4-triazol-1-yl)phenoxy)-4-methylthiazole-2-carbonitrile], the IC50 under setting [4] was less than 100 nM. As to `Nc1ccccc1Oc1ccc(-n2ncn(Cc3c(F)cccc3F)c2=O)cc1` [Example 439, 2-(4-(2-aminophenoxy)phenyl)-4-(2,6-difluorobenzyl)-2,4-dihydro-3H-1,2,4-triazol-3-one], the IC50 under setting [3] was less than 100 nM. With `Cc1nc(C2CC(C#N)C2)sc1Oc1ccc(-n2ncn(Cc3c(F)cccc3F)c2=O)cc1` (centres unmarked) [Example 39, 3-(5-(4-(4-(2,6-difluorobenzyl)-5-oxo-4,5-dihydro-1H-1,2,4-triazol-1-yl)phenoxy)-4-methylthiazol-2-yl)cyclobutane-1-carbonitrile], under setting [4], the IC50 is less than 100 nM. Turning to `C[C@H](O)C1CN(c2cc(Oc3ccc(-n4ncn(Cc5c(F)cccc5F)c4=O)cc3F)c(F)cn2)C1` [Example 556, (S)-4-(2,6-difluorobenzyl)-2-(3-fluoro-4-((5-fluoro-2-(3-(1-hydroxyethyl)azetidin-1-yl)pyridin-4-yl)oxy)phenyl)-2,4-dihydro-3H-1,2,4-triazol-3-one], the IC50 under setting [1] was less than 100 nM. For the compound `N#Cc1cccn(Cc2ccc(-n3ncn(Cc4c(F)cccc4F)c3=O)cc2)c1=O` [Example 194, 1-(4-(4-(2,6-difluorobenzyl)-5-oxo-4,5-dihydro-1H-1,2,4-triazol-1-yl)benzyl)-2-oxo-1,2-dihydropyridine-3-carbonitrile], the IC50 under setting [1] lay within 1000 to 10000 nM. In the case of `Cc1nn(-c2ccc(S(=O)(=O)N3CCN(C4CCOCC4)CC3)cc2)c(=O)n1Cc1ccccc1` [Example 621, 4-benzyl-5-methyl-2-(4-((4-(tetrahydro-2H-pyran-4-yl)piperazin-1-yl)sulfonyl)phenyl)-2,4-dihydro-3H-1,2,4-triazol-3-one], the IC50 under setting [1] was greater than 10000 nM.

`CC1(C#N)CN(c2cc(Oc3ccc(-n4ncn(Cc5c(F)cccc5F)c4=O)cc3)c(F)cn2)C1` [Example 323, 1-(4-(4-(4-(2,6-difluorobenzyl)-5-oxo-4,5-dihydro-1H-1,2,4-triazol-1-yl)phenoxy)-5-fluoropyridin-2-yl)-3-methylazetidine-3-carbonitrile]: the IC50 under setting [3] lay in the range of 100 to 1000 nM. On to `O=c1n(Cc2c(F)cccc2F)cnn1-c1cnc(Oc2ccccc2)s1` [Example 165, 4-(2,6-difluorobenzyl)-2-(2-phenoxythiazol-5-yl)-2,4-dihydro-3H-1,2,4-triazol-3-one], for which, under setting [1], the IC50 was 100 to 1000 nM.

Regarding `NC1CC2(C1)CC(Nc1cc(Oc3ccc(-n4ncn(Cc5c(F)cccc5F)c4=O)cc3)ccn1)C2` (centres unmarked) [Example 332, 2-(4-((2-((6-aminospiro[3.3]heptan-2-yl)amino)pyridin-4-yl)oxy)phenyl)-4-(2,6-difluorobenzyl)-2,4-dihydro-3H-1,2,4-triazol-3-one], the IC50 under setting [3] lay within 100 to 1000 nM.

With `Cc1c(Oc2ccc(-n3ncn(Cc4c(F)cccc4F)c3=O)cc2F)ccnc1N1CC(C)(N)C1` [Example 417, 2-(4-((2-(3-amino-3-methylazetidin-1-yl)-3-methylpyridin-4-yl)oxy)-3-fluorophenyl)-4-(2,6-difluorobenzyl)-2,4-dihydro-3H-1,2,4-triazol-3-one], the IC50 under setting [3] was less than 100 nM. `O=c1n(Cc2c(F)cccc2F)cnn1-c1ccc(Oc2ccnc(N3CCC34CNC4)c2)cc1` [Example 379, 2-(4-((2-(1,6-diazaspiro[3.3]heptan-1-yl)pyridin-4-yl)oxy)phenyl)-4-(2,6-difluorobenzyl)-2,4-dihydro-3H-1,2,4-triazol-3-one]: the IC50 under setting [3] is 100 to 1000 nM.

Consider `Cn1ncn(Cc2ccc(-n3ncn(Cc4c(F)cccc4F)c3=O)cc2)c1=O` [Example 479, 4-(2,6-difluorobenzyl)-2-(4-((1-methyl-5-oxo-1,5-dihydro-4H-1,2,4-triazol-4-yl)methyl)phenyl)-2,4-dihydro-3H-1,2,4-triazol-3-one], for which the IC50 under setting [3] lay within 1000 to 10000 nM. The same measure, in the same setting: to `O=c1n(Cc2c(F)cccc2F)cnn1-c1ccc(Oc2cc(N3CCOCC3)ncc2F)c(F)c1` [Example 283, 4-(2,6-difluorobenzyl)-2-(3-fluoro-4-((5-fluoro-2-morpholinopyridin-4-yl)oxy)phenyl)-2,4-dihydro-3H-1,2,4-triazol-3-one] belongs less than 100 nM.

As to `Cc1nn(-c2ccc(S(=O)(=O)N3CCN(C4COC4)CC3)cc2)c(=O)n1Cc1ccccc1` [Example 623], the IC50 under setting [1] was greater than 10000 nM.
